Where two headings read alike, the source gives them in different places.
Tests used:
NEK7 = NEK7 (Homo sapiens, UniProt Q8TDX7); assay: Kinase screen: NEK7 assay; assay type: biochemical; conditions: read-out: Mean Remaining Enzyme Activity (%)
Protocol: (§1) Generally, the same procedure was used for all assays. Since the total assay volume was 25.5 microliters, 0.5 microliters of inhibitors at 51× assay concentration were added to the plates before any other addition.
(§2) The basic procedure was to add 0.5 microliters inhibitor/control in DMSO to plate. Fifteen microliters of enzyme/substrate/buffer mix were added and incubated for 5 min. Ten microliters MgATP at the relevant concentration were added and incubated for 30 min. The assay was stopped by adding 5 microliters of 3% orthophosphoric acid. The assay was transferred to a p81 filter plate and read in a scintillation counter of 30 sec/well. Note that this assay procedure was not followed for MKK1, which instead involved a two-step assay, and PKC alpha, which required the addition of lipid vesicles.
(500-1000 cpm/pmole) and incubated for 30 min at room temperature. Assays were stopped by addition of 5 μl of 0.5 M (3%) orthophosphoric acid and then harvested onto P81 Unifilter plates with a wash buffer of 50 mM orthophosphoric acid.

HIPK3 = HIPK3 (Homo sapiens, UniProt Q9H422); assay: Kinase screen: HIPK3 assay; assay type: biochemical; conditions: read-out: Mean Remaining Enzyme Activity (%)
Protocol: as §1, §2
HIPK3 assay: 5-20 mU of HIPK3 (diluted in 50 mM Tris (pH 7.5), 0.1 mM EGTA, 1 mg/ml BSA, 0.1%, b-Mercaptoethanol) was assayed against MBP in a final volume of 25.5 μl containing 50 mM Tris (pH 7.5), 0.1 mM EGTA, 0.1%, b-Mercaptoethanol, 0.33 mg/ml MBP, 10 mM magnesium acetate and 0.02 mM [33P-g-ATP] (500-1000 cpm/pmole) and incubated for 30 mins at room temperature. Assays were stopped by addition of 5 μl of 0.5M (3%) orthophosphoric acid. Assays were harvested onto P81 Unifilter plates using a wash buffer of 50 mM orthophosphoric acid.

UACC-257 = assay: cells; conditions: Homo sapiens
NCI/ADR-RES = conditions: for Mean Optical Densities / Percent Growth: NCI/ADR-RES
MDA-MB-231/ATCC = assay: cells; conditions: Homo sapiens
COLO 205 = assay: cells; conditions: Homo sapiens
[1] = HCT-116, log10 concentration −4.0
[2] = HCT-116, log10 concentration −5.0
[3] = HCT-116, log10 concentration −6.0
[4] = HCT-116, log10 concentration −7.0
[5] = HCT-116, log10 concentration −8.0
[6] = K-562, log10 concentration −4.0
[7] = K-562, log10 concentration −5.0
[8] = K-562, log10 concentration −6.0
[9] = K-562, log10 concentration −7.0
[10] = K-562, log10 concentration −8.0
[11] = DU-145, log10 concentration −4.0
[12] = DU-145, log10 concentration −5.0
[13] = DU-145, log10 concentration −6.0
[14] = DU-145, log10 concentration −7.0
[15] = DU-145, log10 concentration −8.0
[16] = BT-549, log10 concentration −4.0
[17] = BT-549, log10 concentration −5.0
[18] = BT-549, log10 concentration −6.0
[19] = BT-549, log10 concentration −7.0
[20] = BT-549, log10 concentration −8.0
[21] = SNB-75, log10 concentration −4.0
[22] = SNB-75, log10 concentration −5.0
[23] = SNB-75, log10 concentration −6.0
[24] = SNB-75, log10 concentration −7.0
[25] = SNB-75, log10 concentration −8.0

Chain of NEK7 (Q8TDX7 whole entry, species assumed): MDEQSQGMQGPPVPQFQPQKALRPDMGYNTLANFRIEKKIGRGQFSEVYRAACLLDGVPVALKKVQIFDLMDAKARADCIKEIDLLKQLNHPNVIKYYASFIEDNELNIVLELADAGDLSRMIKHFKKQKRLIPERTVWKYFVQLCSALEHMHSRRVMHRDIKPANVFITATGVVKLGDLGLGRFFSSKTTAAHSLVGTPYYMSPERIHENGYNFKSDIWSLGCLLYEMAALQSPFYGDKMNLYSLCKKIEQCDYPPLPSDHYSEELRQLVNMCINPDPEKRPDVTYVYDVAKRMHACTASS
Chain of HIPK3 (Q9H422 whole entry, species assumed): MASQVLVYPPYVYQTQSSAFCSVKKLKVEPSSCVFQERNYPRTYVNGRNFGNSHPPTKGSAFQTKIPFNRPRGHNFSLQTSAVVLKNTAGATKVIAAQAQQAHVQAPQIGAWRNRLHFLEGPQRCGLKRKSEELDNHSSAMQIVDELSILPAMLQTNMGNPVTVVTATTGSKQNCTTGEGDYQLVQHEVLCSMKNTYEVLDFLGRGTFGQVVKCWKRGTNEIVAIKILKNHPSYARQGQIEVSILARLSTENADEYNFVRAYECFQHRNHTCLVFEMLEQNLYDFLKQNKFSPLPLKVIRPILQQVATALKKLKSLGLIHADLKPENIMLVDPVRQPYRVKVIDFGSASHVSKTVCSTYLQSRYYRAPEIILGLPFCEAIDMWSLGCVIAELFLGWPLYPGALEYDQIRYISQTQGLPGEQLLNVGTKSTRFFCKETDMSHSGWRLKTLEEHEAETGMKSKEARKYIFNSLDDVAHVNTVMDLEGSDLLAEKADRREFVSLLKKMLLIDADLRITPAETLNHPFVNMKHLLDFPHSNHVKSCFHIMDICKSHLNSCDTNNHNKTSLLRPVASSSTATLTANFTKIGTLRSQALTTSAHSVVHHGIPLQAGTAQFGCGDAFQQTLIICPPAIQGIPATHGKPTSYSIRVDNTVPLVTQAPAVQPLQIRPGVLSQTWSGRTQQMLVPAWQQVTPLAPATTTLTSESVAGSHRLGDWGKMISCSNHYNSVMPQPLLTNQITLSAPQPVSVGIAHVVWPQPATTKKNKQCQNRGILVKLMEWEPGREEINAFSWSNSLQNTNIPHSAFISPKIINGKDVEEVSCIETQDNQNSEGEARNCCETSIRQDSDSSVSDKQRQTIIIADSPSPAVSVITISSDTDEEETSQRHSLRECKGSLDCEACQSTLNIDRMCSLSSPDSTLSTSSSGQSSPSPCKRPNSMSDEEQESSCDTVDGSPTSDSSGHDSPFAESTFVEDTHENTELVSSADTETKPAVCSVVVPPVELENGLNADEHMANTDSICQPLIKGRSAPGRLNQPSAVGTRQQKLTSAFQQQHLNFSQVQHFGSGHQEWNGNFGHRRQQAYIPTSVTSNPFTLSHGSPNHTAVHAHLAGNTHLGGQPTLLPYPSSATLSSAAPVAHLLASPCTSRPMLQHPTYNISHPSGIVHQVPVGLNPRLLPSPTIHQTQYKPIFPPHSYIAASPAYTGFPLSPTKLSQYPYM

CC(C)c1cnn2c(NCc3ccccc3)cc(NCCCCCCCN)nc12 [BS-181]
remaining activity at 10 µM (NEK7): 97%
remaining activity at 10 µM (HIPK3): 90%

CC(C)c1cnn2c(NCc3ccccc3)cc(N[C@@H](CO)[C@H](O)CO)nc12 [ICEC0318, (3S)-3-(7-(Benzylamino)-3-isopropylpyrazolo[1,5-a]pyrimidin-5-ylamino)butane-1,2,4-triol]
TGI (HCT-116; HCT-116 (Colon Cancer)): >1.00E−4
Mean Optical Densities (HCT-116; [1]): 0.170
Percent Growth (HCT-116; [1]): 1%
Mean Optical Densities (HCT-116; [2]): 0.179
Percent Growth (HCT-116; [2]): 2%
Mean Optical Densities (HCT-116; [3]): 0.182
Percent Growth (HCT-116; [3]): 2%
Mean Optical Densities (HCT-116; [4]): 0.749
Percent Growth (HCT-116; [4]): 62%
Mean Optical Densities (HCT-116; [5]): 1.058
Percent Growth (HCT-116; [5]): 95%
TGI (K-562; K-562 (Leukemia)): >1.00E−4
Mean Optical Densities (K-562; [6]): 0.341
Percent Growth (K-562; [6]): 17%
Mean Optical Densities (K-562; [7]): 0.325
Percent Growth (K-562; [7]): 15%
Mean Optical Densities (K-562; [8]): 0.334
Percent Growth (K-562; [8]): 16%
Mean Optical Densities (K-562; [9]): 0.991
Percent Growth (K-562; [9]): 79%
Mean Optical Densities (K-562; [10]): 1.064
Percent Growth (K-562; [10]): 86%
TGI (M14; M14 (Melanoma)): 1.00E−6
Mean Optical Densities (M14; M14, log10 concentration −4.0): 0.125
Percent Growth (M14; M14, log10 concentration −4.0): −62%
Mean Optical Densities (M14; M14, log10 concentration −5.0): 0.246
Percent Growth (M14; M14, log10 concentration −5.0): −26%
Mean Optical Densities (M14; M14, log10 concentration −6.0): 0.333
Mean Optical Densities (M14; M14, log10 concentration −7.0): 1.032
Percent Growth (M14; M14, log10 concentration −7.0): 97%
Mean Optical Densities (M14; M14, log10 concentration −8.0): 1.074
Percent Growth (M14; M14, log10 concentration −8.0): 103%
TGI (DU-145; DU-145 (Prostate Cancer)): >1.00E−4
Mean Optical Densities (DU-145; [11]): 0.204
Percent Growth (DU-145; [11]): 3%
Mean Optical Densities (DU-145; [12]): 0.250
Percent Growth (DU-145; [12]): 12%
Mean Optical Densities (DU-145; [13]): 0.277
Percent Growth (DU-145; [13]): 17%
Mean Optical Densities (DU-145; [14]): 0.688
Percent Growth (DU-145; [14]): 95%
Mean Optical Densities (DU-145; [15]): 0.732
Percent Growth (DU-145; [15]): 103%
GI50 (UACC-257; UACC-257): 344 nM
CC50 (UACC-257; UACC-257, read-out: LC50): > 100000 nM
TGI (BT-549; BT-549 (Breast Cancer)): 8.82E−7
Mean Optical Densities (BT-549; [16]): 0.803
Percent Growth (BT-549; [16]): −10%
Mean Optical Densities (BT-549; [17]): 0.805
Percent Growth (BT-549; [17]): −9%
Mean Optical Densities (BT-549; [18]): 0.843
Percent Growth (BT-549; [18]): −5%
Mean Optical Densities (BT-549; [19]): 1.769
Percent Growth (BT-549; [19]): 88%
Mean Optical Densities (BT-549; [20]): 1.968
Percent Growth (BT-549; [20]): 108%
TGI (SNB-75; SNB-75 (CNS Cancer)): 4.82E−7
Mean Optical Densities (SNB-75; [21]): 0.072
Percent Growth (SNB-75; [21]): −83%
Mean Optical Densities (SNB-75; [22]): 0.162
Percent Growth (SNB-75; [22]): −62%
Mean Optical Densities (SNB-75; [23]): 0.226
Percent Growth (SNB-75; [23]): −47%
Mean Optical Densities (SNB-75; [24]): 0.911
Percent Growth (SNB-75; [24]): 101%
Mean Optical Densities (SNB-75; [25]): 0.848
Percent Growth (SNB-75; [25]): 88%
TGI (U251; U251 (CNS Cancer)): >1.00E−4
Mean Optical Densities (U251; U251, log10 concentration −4.0): 0.262
Percent Growth (U251; U251, log10 concentration −4.0): 2%
Mean Optical Densities (U251; U251, log10 concentration −5.0): 0.289
Percent Growth (U251; U251, log10 concentration −5.0): 5%
Mean Optical Densities (U251; U251, log10 concentration −6.0): 0.299
Percent Growth (U251; U251, log10 concentration −6.0): 6%
Mean Optical Densities (U251; U251, log10 concentration −7.0): 0.999
Percent Growth (U251; U251, log10 concentration −7.0): 81%
Mean Optical Densities (U251; U251, log10 concentration −8.0): 1.168
Percent Growth (U251; U251, log10 concentration −8.0): 99%
TGI (NCI/ADR-RES; NCI/ADR-RES (Breast Cancer)): >1.00E−4
Mean Optical Densities (NCI/ADR-RES; log10 concentration −4.0): 0.531
Percent Growth (NCI/ADR-RES; log10 concentration −4.0): 10%
Mean Optical Densities (NCI/ADR-RES; log10 concentration −5.0): 0.657
Percent Growth (NCI/ADR-RES; log10 concentration −5.0): 22%
Mean Optical Densities (NCI/ADR-RES; log10 concentration −6.0): 1.107
Percent Growth (NCI/ADR-RES; log10 concentration −6.0): 63%
Mean Optical Densities (NCI/ADR-RES; log10 concentration −7.0): 1.638
Percent Growth (NCI/ADR-RES; log10 concentration −7.0): 111%
Mean Optical Densities (NCI/ADR-RES; log10 concentration −8.0): 1.587
Percent Growth (NCI/ADR-RES; log10 concentration −8.0): 107%
GI50 (MDA-MB-231/ATCC; MDA-MB-231): 438 nM
CC50 (MDA-MB-231/ATCC; MDA-MB-231, read-out: LC50): > 100000 nM
GI50 (COLO 205; COLO 205): 147 nM
CC50 (COLO 205; COLO 205, read-out: LC50): 993 nM
